Here are results for 27 molecules from patent publication US20260001889A1, “COMPOSITIONS USEFUL FOR MODULATING SPLICING” (Skyhawk Therapeutics, Inc., priority 2022, published 2026).

pEC50: −log10 of the molar value.

This experiment deals with ATXN3-HiBiT protein. Briefly: ATXN3 Total Protein Assay (Kelly-ATXN3-HiBiT luminescence). Type of experiment: cell-based. Conditions: Kelly-ATXN3-HiBiT cells, 48 h after addition of compound. From the text:
Example 36: ATXN3 Total Protein Assay
To monitor ATXN3 protein levels by luminescence, a Kelly-ATXN3-HiBiT cell line with homozygous knock-in of HiBiT at the C-terminus of the endogenous ATXN3 gene was used (knock-in of the HiBiT-tag coding sequence SEQ ID NO. 14: 5′[…]3′ into exon 11 of ATXN3-position 1114 of ATXN3 RefSeq NM_004993.6). Manipulations of the Kelly-ATXN3-HiBiT cell line that result in downregulation of the ATXN3-HiBiT protein (through modulation of ATXN3-HiBiT pre-mRNA splicing) can be followed by monitoring the luminescence signal of the HiBiT tag using the Nano Glo HiBiT Lytic Detection System (Promega, #N3050). Kelly-ATXN3-HiBiT cells were maintained in RPMI 1640 w/Glutamax (Gibco, #61870010), 10% FBS (Sigma Aldrich, #F8687), 1% Penicillin/Streptomycin (Gibco, #15140-122) at 37° C., 5% CO2. To assess HiBiT-luminescence signal upon compound treatment, 2000 Kelly-ATXN3-HiBiT cells were seeded per well in 384 plate format. Compounds were added 24 h after seeding. ATXN3-HiBiT-luminescence signal was read out 48 h after addition of the compound using the Nano Glo HiBiT Lytic Detection System (Promega, #N3050) according to the manufacturer's instructions. To control for cell viability, an identically prepared sister plate was read out with the CellTiter-Glo® 2.0 Assay (Promega, #G9243) according to the manufacturer's instructions. Fold changes of ATXN3-HiBiT-luminescence and of CellTiter-Glo viability signals were calculated relative to a DMSO control condition.
`CC(O)c1oc2c(NCc3cccs3)cc(Cl)nc2c1Br` (stereo not drawn) [Compound 355, 1-(3-bromo-5-chloro-7-((thiophen-2-ylmethyl)amino)furo[3,2-b]pyridin-2-yl)ethan-1-ol] gave a pEC50 of 5.00 to 5.30.
As for `N[C@H](Cc1oc2c(NCc3cccs3)cc(Cl)nc2c1Br)C[C@@H]1CC1(F)F` [Compound 183, 2-{(S)-3-[(R)-2,2-difluorocyclopropyl]-2-aminopropyl}-3-bromo-5-chloro-7-thenylamino-1-oxa-4-azaindene], the figure is 6.30 to 7.00; as for `[2H]C([2H])(c1oc2c(NCc3cccs3)cc(Cl)nc2c1C#C)[C@H](C)N` [Compound 327, 2-[(S)-2-amino(1,1-^2H2)propyl]-5-chloro-3-ethynyl-7-thenylamino-1-oxa-4-azaindene], 7.00 to 11.00; as for `COCC[C@H](N)Cc1oc2c(NCc3cccs3)cc(Cl)nc2c1Cl` [Compound 274, 2-[(S)-2-amino-4-methoxybutyl]-3,5-dichloro-7-thenylamino-1-oxa-4-azaindene], 6.30 to 7.00.
As for `COC1([C@H](N)Cc2oc3c(NCc4cccs4)cc(Cl)nc3c2Br)CC1` [Compound 144, 2-[(R)-2-amino-2-(1-methoxycyclopropyl)ethyl]-3-bromo-5-chloro-7-thenylamino-1-oxa-4-azaindene], the figure is 4.40 to 5.00; as for `[2H]C([2H])([2H])[C@H](N)Cc1oc2c(NCc3cccs3)cc(Cl)nc2c1Br` [Compound 231, 2-[(S)-2-amino(3,3,3-2H3)propyl]-3-bromo-5-chloro-7-thenylamino-1-oxa-4-azaindene], 7.00 to 11.00.
Turning to `[2H]C([2H])(c1oc2c(NCc3cccs3)cc(Cl)nc2c1Cl)[C@H](C)N` [Compound 293, 2-[(S)-2-amino(1,1-^2H2)propyl]-3,5-dichloro-7-thenylamino-1-oxa-4-azaindene], the pEC50 was 7.00 to 11.00.
Consider `[2H]C([2H])(c1oc2c(NCc3cccs3)cc(Cl)nc2c1C#C)[C@@H](N)CF` [Compound 335, 2-[(R)-2-amino-3-fluoro(1,1-^2H2)propyl]-5-chloro-3-ethynyl-7-thenylamino-1-oxa-4-azaindene], for which the pEC50 was 7.00 to 11.00.
Take `C#Cc1c(C[C@@H](N)CC2(O)CC2)oc2c(NCc3cccs3)cc(Cl)nc12` [Compound 281, 1-[(2S)-2-amino-3-{5-chloro-3-ethynyl-7-[(thiophen-2-ylmethyl)amino]furo[3,2-b]pyridin-2-yl}propyl]cyclopropan-1-ol]: the pEC50 is 5.30 to 6.30.
`[2H]C([2H])(OC(F)F)[C@H](N)Cc1oc2c(NCc3cccs3)cc(Cl)nc2c1Br` [Compound 298, 2-[(R)-2-amino-3-difluoromethoxy(3,3- ^2H2)propyl]-3-bromo-5-chloro-7-thenylamino-1-oxa-4-azaindene] gave a pEC50 of 7.00 to 11.00.
Next, `N[C@@H](CO)C(F)(F)c1oc2c(NCc3nccs3)cc(Cl)nc2c1Br` [Compound 224, (S)-2-amino-3-(3-bromo-5-chloro-7-{[(1,3-thiazol-2-yl)methyl]amino}-1-oxa-4-aza-2-indenyl)-3,3-difluoro-1-propanol]: 5.30 to 6.30; `COc1ccccc1CNc1cc(Cl)nc2c(Br)c(C[C@H](C)N)oc12` [Compound 337, 2-[(S)-2-aminopropyl]-3-bromo-5-chloro-7-{[(o-methoxyphenyl)methyl]amino}-1-oxa-4-azaindene]: 4.40 to 5.00.
As for `N#CC[C@H](N)Cc1oc2c(NCc3cccs3)cc(Cl)nc2c1Br` [Compound 155, (S)-3-amino-4-(3-bromo-5-chloro-7-thenylamino-1-oxa-4-aza-2-indenyl)butyronitrile], the figure is 5.30 to 6.30.
`[2H]C([2H])(c1oc2c(NCc3cccs3)cc(Cl)nc2c1Br)[C@@H](N)CF` [Compound 305, 2-[(R)-2-amino-3-fluoro(1,1-^2H2)propyl]-3-bromo-5-chloro-7-thenylamino-1-oxa-4-azaindene] showed a pEC50 of 7.00 to 11.00.
As for `Cc1c(CC(N)CC2(F)COC2)oc2c(NCc3cccs3)cc(Cl)nc12` (stereo not drawn) [Compound 73, 2-[2-amino-3-(3-fluoro-3-oxetanyl)propyl]-5-chloro-3-methyl-7-thenylamino-1-oxa-4-azaindene], the figure is 4.40 to 5.00; as for `[2H]C([2H])(c1oc2c(NCc3cccs3)cc(Cl)nc2c1Br)[C@H](C)N` [Compound 292, 2-[(S)-2-amino(1,1-^2H2)propyl]-3-bromo-5-chloro-7-thenylamino-1-oxa-4-azaindene], 7.00 to 11.00.
Consider `C#Cc1c(C[C@@H](N)COC2CC2)oc2c(NCc3cccs3)cc(Cl)nc12` [Compound 244, 2-[(R)-2-amino-3-cyclopropoxypropyl]-5-chloro-3-ethynyl-7-thenylamino-1-oxa-4-azaindene], for which the pEC50 is 7.00 to 11.00.
Next, `[2H]C([2H])([2H])OC([2H])([2H])[C@H](N)Cc1oc2c(NCc3cccs3)cc(Cl)nc2c1Br` [Compound 297, 2-[(R)-2-amino-3-(^2H3)methoxy(3,3- ^2H2)propyl]-3-bromo-5-chloro-7-thenylamino-1-oxa-4-azaindene]: 7.00 to 11.00; `Clc1cc(NCc2ccncc2)c2occ(Br)c2n1` [Compound 280, [(4-pyridyl)methyl](3-bromo-5-chloro-1-oxa-4-aza-7-indenyl)amine]: 4.40 to 5.00.
Next, `COCC[C@H](N)Cc1oc2c(NCc3cccs3)cc(Cl)nc2c1Br` [Compound 147, 2-[(S)-2-amino-4-methoxybutyl]-3-bromo-5-chloro-7-thenylamino-1-oxa-4-azaindene]: 7.00 to 11.00.
Consider `N[C@@H](COCC(F)F)Cc1oc2c(NCc3cccs3)cc(Cl)nc2c1Br` [Compound 182, 2-[(R)-2-amino-3-(2,2-difluoroethoxy)propyl]-3-bromo-5-chloro-7-thenylamino-1-oxa-4-azaindene], for which the pEC50 is 7.00 to 11.00.
As for `Cc1c(CC(N)CC2COC2)oc2c(NCc3cccs3)cc(Cl)nc12` (stereo not drawn) [Compound 70, 2-[2-amino-3-(3-oxetanyl)propyl]-5-chloro-3-methyl-7-thenylamino-1-oxa-4-azaindene], the figure is 4.40 to 5.00; as for `[2H]C([2H])([2H])OCC[C@H](N)Cc1oc2c(NCc3cccs3)cc(Cl)nc2c1Cl` [Compound 273, 2-[(S)-2-amino-4-(^2H3)methoxybutyl]-3,5-dichloro-7-thenylamino-1-oxa-4-azaindene], 6.30 to 7.00; as for `[2H][C@@](C)(N)Cc1oc2c(NCc3cccs3)cc(Cl)nc2c1C#C` [Compound 268, 2-[(S)-2-amino(2-^2H)propyl]-5-chloro-3-ethynyl-7-thenylamino-1-oxa-4-azaindene], 7.00 to 11.00.
`Clc1cc(NCc2cccs2)c2occ(Br)c2n1` [Compound 279, (thenyl)(3-bromo-5-chloro-1-oxa-4-aza-7-indenyl)amine] had a pEC50 of 6.30 to 7.00.
In the case of `[2H]C([2H])([2H])[C@@H](N)Cc1oc2c(NCc3cccs3)cc(Cl)nc2c1Br` [Compound 232, 2-[(R)-2-amino(3,3,3-^2H3)propyl]-3-bromo-5-chloro-7-thenylamino-1-oxa-4-azaindene], the pEC50 was 6.30 to 7.00.
As for `C#Cc1c(C[C@@H](N)CCOC)oc2c(NCc3cccs3)cc(Cl)nc12` [Compound 266, 2-[(S)-2-amino-4-methoxybutyl]-5-chloro-3-ethynyl-7-thenylamino-1-oxa-4-azaindene], the figure is 7.00 to 11.00.
